According to EP4803525A1 (Hefei Institute of Pharmaceutical Industry Co., Ltd., priority 2023, dated 2025):
pIC50: −log10 of the molar value. Where two headings read alike, the source gives them in different places.

How the values were obtained:
PDE4B2 = molecular target: T1, PDE4B2 (Homo sapiens, UniProt Q07343); experiment: Inhibitory activity against PDE4B enzyme (AMP-Glo detection); format: biochemical
T1 construct: purchased BPS bioscience
Procedure: 2.1 Compound preparation and treatment: all compounds were prepared into 50 mM stock solutions using dimethyl sulfoxide.
2.2 Preparation of working stock solution: a) the reference rolipram was serially diluted 3 times with dimethyl sulfoxide starting from 2 mmol, to a total of 10 concentrations. b) 2 mmol of the compound of the present invention was serially diluted three times with dimethyl sulfoxide (DMSO) to a total of 10 concentrations. c) A 200X positive control (2 mM rolipram) and a 200X vector control (100% dimethyl sulfoxide) were prepared. d) The compound plate was centrifuged at 1000 rpm for 1 minute.
• a) An Echo 550 was used to transfer 20 nL of compound dilution to each well of the detection plate. • b) The test plate was sealed and centrifuged at 1000 rpm for 1 minute. • c) 2X PDE4B2 was prepared in frozen PDE detection buffer. • d) 2 µL of 2X PDE4B2 was added to each well of the detection plate (prepared in step b). • e) The test plate was sealed and incubated for 10 minutes under RT conditions. • f) 2X Cyclic-3',5'-AMP was prepared in PDE detection buffer. • g) 2 µl of 2X Cyclic-3',5'-AMP (prepared in step f) was added to each well of the detection plate (prepared in step e) to initiate the reaction. Incubation was performed at room temperature for 60 minutes. • h) 4 µL of AMP-Glo reagent I was added. • i) 8 µL of AMP detection solution was added. Incubation was performed at room temperature for 60 minutes. • k) The RLU signal was read on the Envision 2105 reader.

hERG potassium channel = molecular target: T2, hERG potassium channel (Homo sapiens, UniProt Q12809); experiment: hERG whole-cell patch-clamp test in HEK-293 cells; format: cell-based
T2 construct: host or cells: HEK-293
Procedure: HEK-293 cell line stably expressing hERG potassium channels (purchased from Creacell, catalog number: A-0320) was used. HEK293 cell lines were cultured in DMEM medium containing 10% fetal bovine serum and 0.8 mg/mL G418 at a temperature of 37°C and a carbon dioxide concentration of 5%. For patch-clamp assays, cells were separated using TrypLE™ Express before the assay. 4 × 10^3 cells were seeded onto coverslips and cultured in 24-well plates (final volume: 500 µL). The assays were performed 18 hours later.
Whole-cell patch-clamp test: after whole-cell sealing is achieved, the cell membrane voltage is clamped to -80mV. […] Data was collected every 10 seconds to observe the effect of the drug on hERG tail current. A -50 mV stimulus of 0.5 s was used as the leakage current detection. Experimental data were collected by the EPC-10 amplifier and stored in the software. Once the hERG current recorded in whole cells stabilized, drug administration began. Each drug concentration was administered for 5 minutes (or the current stabilized) before the next concentration was measured.

[1] = HEK-293 cells stably expressing hERG, whole-cell patch clamp, 0.03-30 µM, read-out: h ERG IC50

T1 sequence (Q07343 1-564 isoform Q07343-2): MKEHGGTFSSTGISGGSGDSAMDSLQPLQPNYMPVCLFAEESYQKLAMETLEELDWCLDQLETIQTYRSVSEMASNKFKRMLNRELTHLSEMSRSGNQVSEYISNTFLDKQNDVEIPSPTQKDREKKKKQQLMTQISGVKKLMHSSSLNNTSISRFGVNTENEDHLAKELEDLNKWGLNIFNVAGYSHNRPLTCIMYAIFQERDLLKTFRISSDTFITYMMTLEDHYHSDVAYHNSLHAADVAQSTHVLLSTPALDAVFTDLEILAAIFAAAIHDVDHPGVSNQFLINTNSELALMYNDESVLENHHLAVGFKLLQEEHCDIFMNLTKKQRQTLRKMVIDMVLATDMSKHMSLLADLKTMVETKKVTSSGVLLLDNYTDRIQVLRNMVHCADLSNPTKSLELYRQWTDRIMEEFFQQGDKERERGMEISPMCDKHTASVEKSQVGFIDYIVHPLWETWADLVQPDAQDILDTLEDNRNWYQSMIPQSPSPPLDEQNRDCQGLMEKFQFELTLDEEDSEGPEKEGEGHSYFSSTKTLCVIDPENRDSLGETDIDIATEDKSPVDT
T2 sequence (Q12809 whole entry): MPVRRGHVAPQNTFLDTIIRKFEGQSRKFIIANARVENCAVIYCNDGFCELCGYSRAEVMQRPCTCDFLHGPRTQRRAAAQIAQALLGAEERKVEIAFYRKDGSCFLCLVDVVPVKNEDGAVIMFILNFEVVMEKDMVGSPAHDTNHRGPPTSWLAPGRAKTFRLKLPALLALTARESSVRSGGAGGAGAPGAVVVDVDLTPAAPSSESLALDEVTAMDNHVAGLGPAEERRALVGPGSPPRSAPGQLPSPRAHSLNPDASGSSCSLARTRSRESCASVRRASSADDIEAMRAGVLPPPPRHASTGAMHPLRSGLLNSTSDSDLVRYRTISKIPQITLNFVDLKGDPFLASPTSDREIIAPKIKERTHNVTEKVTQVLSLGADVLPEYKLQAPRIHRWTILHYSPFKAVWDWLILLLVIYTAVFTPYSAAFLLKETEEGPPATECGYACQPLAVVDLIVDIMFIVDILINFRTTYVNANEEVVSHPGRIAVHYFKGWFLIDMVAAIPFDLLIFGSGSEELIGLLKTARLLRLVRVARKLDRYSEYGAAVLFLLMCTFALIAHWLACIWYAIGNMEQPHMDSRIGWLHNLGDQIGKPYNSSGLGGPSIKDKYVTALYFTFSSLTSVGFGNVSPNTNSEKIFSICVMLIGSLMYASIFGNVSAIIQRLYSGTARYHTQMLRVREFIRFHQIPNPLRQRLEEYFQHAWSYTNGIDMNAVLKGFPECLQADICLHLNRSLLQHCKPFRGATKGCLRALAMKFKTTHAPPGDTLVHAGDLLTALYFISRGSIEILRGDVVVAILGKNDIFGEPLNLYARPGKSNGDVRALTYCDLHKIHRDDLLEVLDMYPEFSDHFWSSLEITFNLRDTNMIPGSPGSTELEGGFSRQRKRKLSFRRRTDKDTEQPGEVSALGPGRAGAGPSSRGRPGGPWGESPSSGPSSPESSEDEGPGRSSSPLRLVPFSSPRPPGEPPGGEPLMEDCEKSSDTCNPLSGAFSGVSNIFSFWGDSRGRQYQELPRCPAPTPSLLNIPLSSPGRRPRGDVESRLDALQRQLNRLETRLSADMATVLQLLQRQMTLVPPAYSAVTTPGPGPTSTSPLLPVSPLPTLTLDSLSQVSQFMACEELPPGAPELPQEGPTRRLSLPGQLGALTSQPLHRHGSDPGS

Row | SMILES | pIC50 (PDE4B2) | pIC50 (hERG potassium channel; [1]) | pIC50 (hERG potassium channel)
1 | O=C(O)Cc1ccc(Nc2nc(N3CCC(c4ncc(Cl)cn4)CC3)nc3c2S(=O)(=O)CCC3)cc1Cl [Example 21, 2-(2-chloro-4-((2-(4-(5-chloropyrimidin-2-yl)piperidin-1-yl)-5,5-dioxo-7,8-dihydro-6H -thiapyrano[3,2-d]pyrimidin-4-yl)amino)phenyl)acetic acid] | 7.70 to 9.00 | < 4.52 | 
2 | O=S1(=O)CCc2nc(N3CCC(c4ncc(Cl)cn4)CC3)nc(NC3(CO)CCC3)c21 [Example 4] | 7.00 to 7.70 | < 4.52 | 
3 | CC(C)(C)CNC(=O)Cc1ccc(Nc2nc(N3CCC(c4ncc(Cl)cn4)CC3)nc3c2S(=O)(=O)CCC3)cc1F [Example 24, 2-(4-((2-(4-(5-chloropyrimidin-2-yl)piperidin-1-yl)-5,5-dioxo-7,8-dihydro-6H -thiapyrano[3,2-d]pyrimidin-4-yl)amino)-2-fluorophenyl) -N-neopentylacetamide] |  |  | < 4.52
4 | [O-][S+]1CCc2nc(N3CC=C(c4ncc(Cl)cn4)CC3)nc(NC3(CO)CCC3)c21 (stereo not drawn) [Example 1, 2-(4-(5-chloropyrimidin-2-yl)-3,6-dihydropyridin-1(2H)-yl)-4-((1-(hydroxymethyl)cyclobutyl)amino)-6,7-dihydrothiopheno[3,2-d]pyrimidine-5-oxide] |  | 4.84 | 
5 | O=C(c1ncc(Cl)cn1)N1CCN(c2nc3c(c(NC4(CO)CCC4)n2)[S+]([O-])CC3)CC1 (stereo not drawn) [Example 3, (5-chloropyrimidin-2-yl)(4-(4-((1-(hydroxymethyl)cyclobutyl)amino)-5-oxo-6,7-dihydrothieno[3,2-d]pyrimidin-2-yl)piperazin-1-yl)methanone] |  | < 4.52 | 
6 | O=C(O)C1(c2ccc(Nc3nc(N4CCC(c5ncc(Cl)cn5)CC4)nc4c3S(=O)(=O)CCC4)cc2F)CCC1 [Example 25, 1-(4-((2-(4-(5-chloropyrimidin-2-yl)piperidin-1-yl)-5,5-dioxo-7,8-dihydro-6H -thiapyrano[3,2-d]pyrimidin-4-yl)amino)-2-fluorophenyl)cyclobutane-1-carboxylic acid] | 7.70 to 9.00 |  | 
7 | O=C(O)Cc1ccc(Nc2nc(N3CC=C(c4ncc(Cl)cn4)CC3)nc3c2[S+]([O-])CC3)cc1F (stereo not drawn) [Example 14, 2-(4-((2-(4-(5-chloropyrimidin-2-yl)-3,6-dihydropyridin-1(2H)-yl)-5-oxo-6,7-dihydrothiopheno[3,2-d]pyrimidin-4-yl)amino)-2-fluorophenyl)acetic acid] |  | < 4.52 | 
8 | [O-][S+]1CCc2nc(N3CCN(Cc4ncc(Cl)cn4)CC3)nc(NC3(CO)CCC3)c21 (stereo not drawn) [Example 2, 2-(4-((S-chloropyrimidin-2-yl)methyl)piperazin-1-yl)-4-((1-(hydroxymethyl)cyclobutyl)amino)-6,7-dihydrothiopheno[3,2-d]pyrimidine 5-oxide] | 7.00 to 7.70 | < 4.52 | 
9 | O=C(O)C1(c2ccc(Nc3nc(N4CCC(c5ncc(Cl)cn5)CC4)nc4c3S(=O)(=O)CCC4)cc2F)CC1 [Example 23, 1-(4-((2-(4-(5-chloropyrimidin-2-yl)piperidin-1-yl)-5,5-dioxo-7,8-dihydro-6H-thiapyrano[3,2-d]pyrimidin-4-yl)amino)-2-fluorophenyl)cyclopropane-1-carboxylic acid] | 7.70 to 9.00 |  | 
10 | O=C(O)Cc1c(F)cc(Nc2nc(N3CCC(c4ncc(Cl)cn4)CC3)nc3c2S(=O)(=O)CCC3)cc1F [Example 22, 2-(4-((2-(4-(5-chloropyrimidin-2-yl)piperidin-1-yl)-5,5-dioxo-7,8-dihydro-6H -thiapyrano[3,2-d]pyrimidin-4-yl)amino)-2,6-difluorophenyl)acetic acid] | 7.70 to 9.00 | < 4.52 | 
11 | O=C(O)Cc1ccc(Nc2nc(N3CC=C(c4ncc(Cl)cn4)CC3)nc3c2S(=O)(=O)CCC3)cc1F [Example 18, 2-(4-((2-(4-(5-chloropyrimidin-2-yl)-3,6-dihydropyridin-1(2H)-yl)-5,5-dioxo-7,8-dihydro-6H -thiapyrano[3,2-d]pyrimidin-4-yl)amino)-2-fluorophenyl)acetic acid] | > 9.00 |  | 
12 | O=C(O)C1(c2ccc(Nc3nc(N4CC=C(c5ncc(Cl)cn5)CC4)nc4c3S(=O)(=O)CCC4)cc2F)CCC1 [Example 26, 1-(4-((2-(4-(5-chloropyrimidin-2-yl)-3,6-dihydropyridin-1(2H)-yl)-5,5-dioxo-7,8-dihydro-6H -thiapyrano[3,2-d]pyrimidin-4-yl)amino)-2-fluorophenyl)cyclobutane-1-carboxylic acid] |  | < 4.52 | 
13 | [O-][S+]1CCc2nc(N3CC4(CN(c5ncc(Cl)cn5)C4)C3)nc(NC3(CO)CCC3)c21 (stereo not drawn) [Example 8] | 7.00 to 7.70 | < 4.52 | 
14 | O=C(O)Cc1ccc(Nc2nc(N3CCN(c4ncc(Cl)cn4)CC3)nc3c2S(=O)(=O)CCC3)cc1F [Example 27, 2-(4-((2-(4-(5-chloropyrimidin-2-yl)piperazin-1-yl)-5,5-dioxo-7,8-dihydro-6H -thiapyrano[3,2-d]pyrimidin-4-yl)amino)-2-fluorophenyl)acetic acid] | 7.70 to 9.00 |  | 
15 | Cc1ccc(O)c(C(=O)NC2CCN(c3nc4c(c(NC5(CO)CCC5)n3)[S+]([O-])CC4)CC2)c1 (stereo not drawn) [Example 7, 2-hydroxyl-N-(1-(4-((1-(hydroxymethyl)cyclobutyl)amino)-5-oxo-6,7-dihydrothiapheno[3,2-d]pyrimidin-2-yl)piperidin-4-yl)-5-methylbenzamide] | 7.70 to 9.00 | < 4.52 | 
